Assay [1] relates to Hepatitis B virus. Set-up: species or system rhesus monkeys. The note with it: rhesus monkey, in vivo.
The test system of assay [2] is Factor VIII:c. As to conditions: Factorate. The method, then: (§1) Lyophilized Factor VIII (Factorate--Armour) was extracted with chloroform using three different procedures.
(§2) A. 1 gram of Factorate (dry powder) was mixed at 4° C. for 20 minutes with 20 ml of cold chloroform. The chloroform was then removed by filtration and the dry powder was washed on the filter with an additional 10 ml of cold chloroform.
(§3) B. 1 gram of Factorate (dry powder) was mixed with 10 ml of cold chloroform at 4° C. for 10 minutes. The chloroform was removed by filtration and the powder was washed on the filter with 5 ml of cold chloroform. This process was then repeated a second time.
(§4) C. 1 gram of Factorate (dry powder) was mixed with 20 ml of chloroform at room temperature for 20 minutes. The chloroform was removed by filtration and the dry powder was washed on the filter with 10 ml of chloroform at room temperature.

The test system of assay [3] is Fibrinogen. The note with it: Factorate. As to the method:
as §1, §2, §3, §4

In assay [4] the test system is Fibronectin. The note with it: Factorate. The method, then:
as §1, §2, §3, §4

In assay [5] the test system is coliphage .phi.×174.
In assay [6] the test system is Avian influenza virus. The note with it: 10% (v/v) chloroform.
Assay [7] relates to Polio Virus Type 1. The note with it: 10% (v/v) chloroform.
The test system of assay [8] is Vaccinia Virus. The note with it: 10% (v/v) chloroform.
Assay [9] relates to non-A, non-B hepatitis virus (H strain).
The subject of assay [10] is Hepatitis B virus. As to conditions: in vivo.
Assay [11] deals with Vaccinia virus. As to conditions: for inactivation of vaccinia virus: dry product 20 minutes, Factor 8; for Percent Inactivation: Vaccinia, dry state 20 min, Factor VIII.
Assay [12] has as its system Avian influenza virus. As to conditions: for Percent Inactivation: Influenza, dry state 20 min, Factor VIII.
Assay [13] has as its system Vaccinia virus.
Setting [14] is: preliminary, uncontrolled, 10^-2 dilution of H plasma, 5% v/v chloroform.

Where two headings read alike, the source gives them in different places.

Consider `CCOCC` [ether, diethyl ether], for which, in [1], the “inactivation of the virus” value is given as “inactivated”.
As for `ClC(Cl)Cl` [Chloroform, chloroform], the “Factor VIII Units/ml” value in assay [2] (4° C. 1 × Extracted (control 9.1)) is 8.9 Units/ml; in [2] (4° C. 2 × Extracted (control 9.1)), 9.3 Units/ml; in [2] (Room Temp. Extraction (control 9.1)), 9.5 Units/ml. Besides, the Fibrinogen was 9.3 mg/mL in assay [3] (4° C. 1 × Extracted (control 8.9 mg)), 8.6 mg/mL in assay [3] (4° C. 2 × Extracted (control 8.9 mg)) and 9.3 mg/mL in assay [3] (Room Temp. Extraction (control 8.9 mg)). In addition, the values for the Fibronectin in assay [4] (4° C. 1 × Extracted (control 1.11 mg)), in assay [4] (4° C. 2 × Extracted (control 1.11 mg)) and in assay [4] (Room Temp. Extraction (control 1.11 mg)) were 1.19 mg/mL, 1.29 mg/mL and 1.14 mg/mL, respectively. Moreover, the “inactivation of the virus” value in [1] is “inactivated”. Moreover, the “Virus Titer Log10 ID50 /0.1 ml after CHCl3 extraction” value in assay [5] is reported as 9.0 Log10 ID50 /0.1 ml; in [7] (Polio virus type 1 in Fetal Calf Serum, 1:100, 10 min, room temperature) it was 6.5 Log10 ID50 /0.1 ml; in assay [8] (Vaccinia virus in Fetal Calf Serum, 1:100, 10 min, room temperature) it was at most 0.5 Log10 ID50 /0.1 ml. Further, the “reaction of control virus to chloroform treatment” value is listed as “essentially unaffected” in [5], “totally inactivated” in assay [6], “essentially unaffected” in assay [7] (poliovirus) and “totally inactivated” in assay [8] (Vaccinia virus). For the same molecule, in assay [9] (10^4 chimpanzee infectious doses of the H strain of NANB), the “inactivation of 10^4 chimpanzee infectious doses” value is reported as “inactivated”. For the same molecule, the evidence of hepatitis entry in [9] (chimpanzee 947, following either chloroform-treated or sham-treated H plasma) is given as “no evidence of hepatitis”. For the same molecule, the “biochemical evidence of hepatitis (weekly ALT levels)” value in assay [9] (chimpanzees 889 and 947, chloroform-treated H plasma, 10% (v/v) chloroform) is on record as “none of these animals developed biochemical evidence of hepatitis”; in assay [10], “none of these animals developed biochemical evidence of hepatitis”. This molecule showed an incubation period in assay [9] (setting [14]) of 9.5 weeks. Besides, the “infectivity after chloroform treatment” value in assay [9] (setting [14]) is on record as “still infectious”. In addition, the “virus titer (indicated by incubation period)” value in [9] (setting [14]) is reported as “reduced”. For the same molecule, the “anti-HBs / anti-HBc response” value in assay [10] is “did develop anti-HBs but not anti-HBc”. Also, the “inactivation of vaccinia virus” value is given as “not inactivated” in assay [11] (4°); “partially inactivated” in [11] (20° and 40° C.); 90% in [13] (after 20 minutes, dry state, room temperature (20° C.)); 98% in assay [13] (after 2 hours, dry state, room temperature (20° C.)); “completely inactivated” in assay [13] (after 4 hours or more, dry state, room temperature (20° C.)); “completely inactivated” in assay [13] (regardless whether in the liquid or dry state, longer time required when dry). The “Percent Inactivation” value in assay [11] (4° C.) is 0%; in [11] (20° C.), 70%; in [11] (40° C.), 70%; in assay [12] (4° C.), 99.8%; in assay [12] (20° C.) it was 90%. Besides, the “completeness of inactivation of avian influenza virus” value in assay [12] (dry product 20 minutes, Factor 8) is listed as “inactivation was not complete”. For the same molecule, the “inactivation of avian influenza virus” value in assay [12] (dry product 20 minutes, Factor 8, similar conditions of treatment) is recorded as 90-99.8%.

Source of the values: US4581231A (priority 1983, dated 1986).
